The values below come from article PMC4222822, “Discovery and Characterization of a Potent and Selective Inhibitor of Aedes aegypti Inward Rectifier Potassium Channels” (PLoS ONE, 2014).

The target in one experiment is AeKir1 (Aedes aegypti, UniProt L0EQS9). The experiment can be described thus: Tl+ flux assay in T-REx-HEK293-AeKir1 cells. The note with it: for IC50: read-out: IC50±SEM. It counts as cell-based. As for the experimental part: Tl^+ flux assays were performed essentially as described previously, [18], [19]. Briefly, stably transfected T-Rex-HEK-293 cells expressing AeKir1 channels were cultured overnight in 384-well plates (20,000 cells/20 µL/well black-walled, clear-bottomed BD PureCoat amine-coated plates (BD, Bedford, MA) with a plating media containing DMEM, 10% dialyzed FBS and 1 µg/mL tetracycline. The next day, the cell culture medium was replaced with a dye-loading solution containing assay buffer (Hanks Balanced Salt Solution with 20 mM HEPES, pH 7.3), 0.01% (w/v) Pluronic F-127 (Life Technologies, Carlsbad, CA), and 1.2 µM of the thallium-sensitive dye Thallos-AM (TEFlabs, Austin, TX). Following 1 hr incubation at room temperature, the dye-loading solution was washed from the plates and replaced with 20 µL/well of assay buffer. The plates were transferred to a Hamamatsu Functional Drug Screening System 6000 (FDSS6000; Hamamatsu, Hamamatsu (or Bridgewater, NJ), Japan) where 20 µL/well of test compounds in assay buffer (as prepared below) were added and allowed to incubate with the cells for 20 min. After the incubation period, a baseline recording was collected at 1 Hz for 10 s (excitation 470±20 nm, emission 540±30 nm) followed by a Tl^+ stimulus buffer addition (10 µL/well) and data collection for an additional 4 min. The Tl^+ stimulus buffer contains in (mM) 125 NaHCO3, 1.8 CaSO4, 1 MgSO4, 5 glucose, 12 Tl2SO4, 10 HEPES, pH 7.4. For Tl^+ flux assays on the mammalian channels Kir2.x, Kir4.1 and Kir6.2/SUR1 expressing cells, the Tl^+ stimulus buffer contained 1.8 mM Tl2SO4. Also, Tl^+ flux assays on Kir3.1/3.2/mGlu8 expressing cell, required addition of an EC80 concentration of glutamate (Sigma-Aldrich, St. Louis, MO) with the Tl^+ stimulus buffer. The test compounds were transferred to daughter polypropylene 384-well plates (Greiner Bio-One, Monroe, NC) using an Echo555 liquid handler (Labcyte, Sunnyvale, CA), and then diluted into assay buffer to generate a 2X stock in 0.6% DMSO (0.3% final). For Tl^+ flux assays on Kir6.2/SUR1 expressing cells, test compounds were diluted in assay buffer containing diazoxide (250 µM final) to induce channel activation. Concentration-response curves (CRCs) were generated by screening compounds at 3-fold dilution series in 4-point (1 µM–30 µM) or 11-point (1 nM–30 µM) CRCs. Tl^+ flux data were analyzed as previously described, [21], [22] using a combination of Excel (Microsoft Corp, Redmond, WA) with XLfit add-in (IDBS, Guildford, Surrey, UK) and OriginPro (OriginLab, Northampton, MA) software. Raw data were opened in Excel and each data point in a given trace was divided by the first data point from that trace (static ratio) followed by subtraction of data points from control traces generated in the presence of vehicle controls. The slope of the fluorescence increase beginning 5 s after Tl^+ addition and ending 15 s after Tl^+ addition was calculated. To compare the effect of DMSO on AeKir1-mediated Tl^+ flux, a one-way ANOVA was performed with a Tukey's multiple comparison test. Prism software (GraphPad Software) was used to generate CRC from Tl^+ flux. Half-inhibition concentration (IC50) values were calculated from fits using a four parameter logistic equation.
Sequence of AeKir1 (L0EQS9 entry or part of it): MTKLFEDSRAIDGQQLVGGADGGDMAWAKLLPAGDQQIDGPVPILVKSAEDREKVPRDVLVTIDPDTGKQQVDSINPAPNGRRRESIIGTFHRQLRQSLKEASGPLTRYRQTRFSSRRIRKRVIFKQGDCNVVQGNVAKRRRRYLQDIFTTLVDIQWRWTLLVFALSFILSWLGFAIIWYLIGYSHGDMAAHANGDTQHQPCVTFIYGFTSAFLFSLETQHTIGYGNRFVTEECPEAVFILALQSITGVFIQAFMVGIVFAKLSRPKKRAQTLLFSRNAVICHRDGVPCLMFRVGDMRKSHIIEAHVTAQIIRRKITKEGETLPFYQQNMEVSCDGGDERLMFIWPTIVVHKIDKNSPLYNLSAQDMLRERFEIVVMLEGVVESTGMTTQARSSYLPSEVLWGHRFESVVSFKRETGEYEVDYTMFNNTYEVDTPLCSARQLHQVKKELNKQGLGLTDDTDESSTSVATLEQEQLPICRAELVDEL

In the next experiment the test system is mosquitoes. The experiment can be described thus: Toxicity when applied to the cuticle (topical). It is filed as in vivo. The following applies: Piermarini, unpublished observations.
The test system of experiment [1] is adult female mosquitoes (A. aegypti). Set-up: method as in PMID 23734226, PMID 24959745. The following applies: after loading hemolymph with 900 nl of a PBS vehicle; cited from earlier work.
In the next experiment the target is AeKir2B (Aedes aegypti, UniProt L0EQ40). Set-up: method as in PMID 24959745. The following applies: cited from earlier work.
Sequence of AeKir2B (L0EQ40 entry or part of it): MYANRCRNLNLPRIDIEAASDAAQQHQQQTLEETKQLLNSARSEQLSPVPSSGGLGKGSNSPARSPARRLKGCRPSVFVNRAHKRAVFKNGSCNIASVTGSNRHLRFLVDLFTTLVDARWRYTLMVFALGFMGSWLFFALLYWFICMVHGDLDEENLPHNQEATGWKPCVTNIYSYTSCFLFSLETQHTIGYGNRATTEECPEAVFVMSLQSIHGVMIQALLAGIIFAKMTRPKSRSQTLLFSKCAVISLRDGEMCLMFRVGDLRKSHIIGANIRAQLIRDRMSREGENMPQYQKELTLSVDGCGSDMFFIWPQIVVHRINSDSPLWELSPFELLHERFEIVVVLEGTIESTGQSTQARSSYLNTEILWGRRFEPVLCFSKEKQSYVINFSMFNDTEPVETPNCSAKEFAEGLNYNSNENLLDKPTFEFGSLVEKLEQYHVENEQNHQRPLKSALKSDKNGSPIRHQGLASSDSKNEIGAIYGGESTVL
Experiment [2] has as its system adult female mosquitoes (A. aegypti). Details: method as in PMID 23734226, PMID 24959745. The following applies: within 24 h; cited from earlier work.
Experiment [3] shares this test system. The experiment can be described thus: Mosquito excretion experiments (excretory capacity). It counts as in vivo, Aedes aegypti. The note with it: probenecid 3.4 nmol per mosquito in 900 nL vehicle, 1 h after injection; mean ±SEM. As for the experimental part: The Aedes aegypti mosquito colony used in the present study is identical to that described previously. As before, only adult female mosquitoes 3–10 days post emergence were utilized for experiments.
The excretory capacity of mosquitoes was measured as described. In brief, after anesthetizing mosquitoes on ice, their hemolymph was injected as described above with 900 nL of a K^+-PBS vehicle containing 1.15% DMSO, 0.077% β-cyclodextrin, and 0.008% Solutol, or the vehicle containing VU625 (0.77 mM) to deliver a dose of 690 pmol of VU625 per mosquito. In experiments where probenecid was used, the vehicle was supplemented with water- soluble probenecid […] to deliver a dose of 3.4 nmol of probenecid per mosquito. After injection, the mosquitoes were placed immediately in a graduated, packed-cell volume tube (MidSci, St. Louis, MO; 5 mosquitoes per tube) and held at 28°C. The volume of urine excreted at 60 min post injection was measured as described previously, and all mosquitoes were confirmed to be alive at the end of 60 min period. For each treatment, 6–18 independent trials of 5 mosquitoes per treatment were performed.
Prism (GraphPad Software) was used to generate a dose-response curve for the toxicity of VU625; the doses (x-axis) were first log transformed and then the mortality data was normalized using Prism, where the smallest value and largest values in a data set equal ‘0%’ and ‘100%’, respectively. The data were then fitted using a ‘biphasic’ algorithm (<100 constraint) to calculate potencies (ED25 and ED75 values). To compare 1) the toxic effects among the vehicle, probenecid, VU625, and VU625 + probenecid treatments, and 2) the excretory capacity among the vehicle, probenecid, VU625, and VU625 + probenecid treatments, one-way ANOVAs were performed with Newman-Keuls posttests.

Where [4] appears, read: Table 2, southern amide SAR, 11-point CRCs on AeKir1 in Tl+ flux, triplicate on two separate days.
Where [5] appears, read: Table 3, central core SAR, 11-point CRCs on AeKir1 in Tl+ flux, triplicate on two separate days.

Each structure is given as a SMILES string. Read-outs that look alike come from different tables or passages of the source. Some results are limits rather than exact numbers.

For the compound `COc1cccc(NS(=O)(=O)c2ccc3c(c2)CC(C)N3C(=O)C(F)(F)F)c1` (stereo not shown) [3b], the IC50 (in general, the concentration that gives 50% inhibition) on AeKir1 (setting [4]) was found to be 580 ± 40 nM.
With `COc1cccc(NS(=O)(=O)c2ccc3c(c2)CC(C)N3C(=O)c2cccc(F)c2)c1` (stereo not shown) [3c], on AeKir1 (setting [4]), the IC50 came to 5200 ± 400 nM.
Still for that read-out and setting: the result for `COc1cccc(NS(=O)(=O)c2ccc3c(c2)CC(C)N3C(=O)c2ccccc2C)c1` (stereo not shown) [3d] reads 4410 ± 1110 nM; that for `COc1cccc(NS(=O)(=O)c2ccc3c(c2)CC(C)N3C(=O)c2cccc(C)c2)c1` (stereo not shown) [3e], 3870 ± 1970 nM; that for `COc1cccc(NS(=O)(=O)c2ccc3c(c2)CC(C)N3C(=O)c2ccc(C)cc2)c1` (stereo not shown) [3f], greater than 30000 nM.
For the compound `COc1cccc(NS(=O)(=O)c2ccc3c(c2)CC(C)N3C(=O)c2ccccn2)c1` (stereo not shown) [3g], the half-inhibitory concentration (IC50) on AeKir1 (setting [4]) turned out to be 4400 ± 500 nM.
In the case of `COc1cccc(NS(=O)(=O)c2ccc3c(c2)CC(C)N3S(=O)(=O)c2ccccc2)c1` (stereo not shown) [3h], on AeKir1 (setting [4]), the “IC50±SEM” value is given as “less activity” and the IC50 was 3290 ± 890 nM.
With `COc1cccc(NS(=O)(=O)c2ccc3c(c2)CC(C)N3C(=O)N(C)C)c1` (stereo not shown) [3i], on AeKir1 (setting [4]), the IC50 was 2090 ± 490 nM.
As to `COc1cccc(NS(=O)(=O)c2ccc3c(c2)CC(C)N3S(C)(=O)=O)c1` (stereo not shown) [3j], the IC50 on AeKir1 (setting [4]) worked out at 2820 ± 480 nM.
On the same count and under the same terms, the result for `COc1cccc(NS(=O)(=O)c2ccc3c(c2)CC(C)N3S(=O)(=O)C2CC2)c1` (stereo not shown) [3k] reads 760 nM; that for `COc1cccc(NS(=O)(=O)c2ccc3c(c2)CC(C)N3S(=O)(=O)C(C)(C)C)c1` (stereo not shown) [3l], 820 ± 480 nM.
Consider `COc1cccc(NS(=O)(=O)c2ccc3c(ccn3C)c2)c1` [4a], for which the IC50 at AeKir1 (setting [5]) was determined as 550 ± 80 nM.
On to `COc1cccc(NS(=O)(=O)c2ccc3c(c2)cc(C)n3C)c1` [4b], for which the IC50 on AeKir1 (setting [5]) came out at 970 ± 100 nM.
With `COc1cccc(NS(=O)(=O)c2ccc3c(c2)CCC(=O)N3)c1` [4c], the IC50 at AeKir1 (setting [5]) was greater than 30000 nM.
On to `COc1cccc(NS(=O)(=O)c2ccc3c(c2)OCC(=O)N3)c1` [4d], for which the IC50 on AeKir1 (setting [5]) was greater than 30000 nM.
Turning to `COc1cccc(NS(=O)(=O)c2ccc3c(c2)CC(=O)N3C)c1` [4e], the IC50 on AeKir1 (setting [5]) is greater than 30000 nM.
`COc1cccc(NS(=O)(=O)c2ccc3c(c2)CCN3C(C)=O)c1` [4f]: the “loss of potency relative to VU625” value on AeKir1 (AeKir1 Tl+ flux) is given as roughly 3 fold. Further, the IC50 at AeKir1 (setting [5]) was 1150 ± 50 nM.
Consider `Cc1ccc(OCC(O)Cn2c(=N)n(Cc3ccccc3)c3ccccc32)cc1` (stereo not shown) [VU573], for which the “toxicity when applied to the cuticle” value with mosquitoes was “lack of topical activity”. The “effect on excretory capacity” value in experiment [1] was “decrease in the excretory capacity”. The “effect on AeKir2B” value on AeKir2B was “activates AeKir2B”. The “effect of hemolymph injection on mosquitoes” value in experiment [2] is “incapacitation and/or death within 24 h”.
In the case of `O=[N+]([O-])c1ccc(CN2CCOCCOCCN(Cc3ccc([N+](=O)[O-])cc3)CCOCC2)cc1` [VU590], the “toxicity when applied to the cuticle” value with mosquitoes is recorded as “lack of topical activity”. The “effect on excretory capacity” value in experiment [1] is “decrease in the excretory capacity”. For the same compound, the “effect on AeKir2B” value on AeKir2B is given as “selective inhibitor of AeKir1 over AeKir2B”. Further, in experiment [2], the “effect of hemolymph injection on mosquitoes” value is “incapacitation and/or death within 24 h”.
In the case of `CCCN(CCC)S(=O)(=O)c1ccc(C(=O)O)cc1` [probenecid, reference compound], in experiment [3], the “excretory capacity (urine excreted)” value came out at 467.8±33.53 nL/female.
